The nature of this assay: EBV protein-peptide binding inhibitors, dose response, biochemical, fluorescence polarization (AID 1419). Conditions: cell-free protein-peptide binding, 2 h; for fold change: measured here: P channel fold over control, at 54 µM. On the technique in general: Fluorescence polarisation rises when a labelled molecule tumbles more slowly, as on binding a larger partner.

Each structure is given as a SMILES string. The source made the active and inactive calls. No rule for the calls is given here.

Broadly, the IC50 is the midpoint of a concentration-inhibition curve. On to `Cc1cc(-c2nc3c4c5c(sc4[nH]c(=O)n3n2)CCC5)c(C)o1`, for which the half-maximal inhibitory concentration (IC50) was 21.8 µM and the fold change amounted to 1.2.
In the same order, the values of `O=C1Nc2cc(Cl)cnc2N2CCCC12` (centres undefined) are > 54 µM (inactive) and 1.68.
The matching figures for `COC(=O)CCCC1=CC2=CC(=O)C(C)(OC(=O)c3cccs3)C(=O)C2=CN1c1cccc(C#N)c1` (centres undefined): > 54 µM (inactive) and 1.49.
For the compound `CCCCOc1[nH]c2nc(-c3ccco3)n(Cc3ccco3)c(=N)c2c1C#N`, the IC50 is > 54 µM (inactive) and the fold change was found to be 1.17.
For the compound `Cc1ccc(NC(=O)CN2C(=O)S/C(=C/c3ccc(O)c([N+](=O)[O-])c3)C2=O)cc1C`, the IC50 was > 54 µM (inactive) and the fold change was 0.99.
The matching figures for `O=C(CSc1n[nH]c(=O)[nH]c1=O)Nc1ccc2c(c1)C(=O)c1ccccc1C2=O`: 9.26 µM and 1.21.
In the same order, the values of `CCCCn1c(N)c(NCCC(C)C)c(=O)[nH]c1=O` are 24.4 µM and 1.91.
The matching figures for `Cc1ccc(C(NC(=O)C2CCCCC2)c2c(O)ccc3ccccc23)cc1` (centres undefined): > 54 µM (inactive) and 1.03.
Regarding `Cc1ccc([N+](=O)[O-])cc1-c1ccc(/C=C(\C#N)c2[nH]nc(N)c2C#N)o1`, the IC50 was > 54 µM (inactive) and the fold change was 0.727.
In the same order, the values of `Nc1c(C(=O)NC2CC2)sc2nc3c(c(-c4ccco4)c12)CC/C3=C/c1ccco1` are 1.32 µM and 3.52.
The matching figures for `CN1CCCc2cc3c(C(F)(F)F)cc(=O)oc3nc21`: under 0.42 µM and 18.4.
In the same order, the values of `CCCc1cc(=O)n(-c2nc3ccccc3s2)[nH]1` are > 54 µM (inactive) and 0.94.
With `COc1ccc2nc(N3CCCC3)c(C#N)cc2c1`, the 50% inhibitory concentration (IC50) is under 0.42 µM and the fold change was determined as 16.7.
For the compound `CCOC(=O)[C@]1(C#N)[C@@H]2C=CC(C(C)=O)=CN2[C@@H](C(N)=O)[C@@H]1c1ccsc1`, the half-maximal inhibitory concentration (IC50) was 4.35 µM and the fold change came out at 3.68.
In the case of `CC(=O)Nc1ccc(N2CCc3c(C)c(C#N)c4nc5ccccc5n4c32)cc1`, the IC50 was > 54 µM (inactive) and the fold change came to 3.39.
Take `COc1cc(CCC(=O)N2CCN(c3ncccn3)CC2)cc(OC)c1OC`: the IC50 is > 54 µM (inactive) and the fold change came to 1.05.
On to `Nc1ccc(O)c2c1C(=O)c1ccccc1C2=O`, for which the IC50 is 3.1 µM and the fold change came to 2.55.
In the same order, the values of `CCOc1ccccc1-c1c2cc(O)c(=O)cc-2oc2cc(O)c(O)cc12` are > 54 µM (inactive) and 232.
As to `Cc1cccc2c3nc4ccccc4nc3n(CCCN3C(=O)c4ccccc4C3=O)c12`, the IC50 was 15.9 µM and the fold change was 3.01.
As to `COc1ccc(N=C2NC(=O)S/C2=C\c2ccc(N(C)C)cc2)cc1`, the 50% inhibitory concentration (IC50) was 4.75 µM and the fold change came out at 3.03.
In the case of `Cc1cc2nc3c(=O)[nH]c(=O)[nH]c3nc2c([N+](=O)[O-])c1N`, the IC50 was under 0.42 µM and the fold change came to 67.
`COc1ccc2nc(-n3c(O)c(C4=c5ccccc5=NC4=O)[nH]c3=S)sc2c1`: the half-inhibitory concentration (IC50) was 3.48 µM and the fold change amounted to 0.923.
In the same order, the values of `CCOC(=O)C1CCCN(c2nc3ccccc3nc2C(C#N)C(=O)NCc2ccccc2)C1` (centres undefined) are 8.82 µM and 2.73.
Regarding `CN1CC=C2C(C#N)=C(N)C(C#N)(C#N)C(c3cccc(Cl)c3Cl)C2C1` (centres undefined), the IC50 is 1.44 µM and the fold change was determined as 7.33.
The matching figures for `CCOc1ccc2nc(N3CCCN(C(=O)Nc4ccccc4C)CC3)c(C#N)cc2c1`: 8.65 µM and 8.56.
Consider `CCN(CC)c1ccc(/C=c2\sc3nnc(-c4ccccc4Cl)n3c2=O)cc1`, for which the IC50 was 2.65 µM and the fold change amounted to 16.1.
For the compound `O=C(O)c1ccccc1/C=N/NC(=O)c1cc(-c2ccco2)nc2ccccc12`, the IC50 was 30.4 µM (inactive) and the fold change was determined as 1.03.
In the same order, the values of `Cc1cc(NS(=O)(=O)c2ccc(NC(=O)c3cc4cc(Br)ccc4oc3=O)cc2)no1` are 13.7 µM and 1.15.
The matching figures for `O=C1NC(=S)/C(=C\c2ccc(-c3ccccc3Cl)o2)S1`: 26.9 µM and 1.59.
Take `O=c1cc2oc3cc(O)c(O)cc3c(-c3ccccc3O)c-2cc1O`: the IC50 is 5.29 µM and the fold change is 232.
With `CCCn1c(=C(C#N)C#N)s/c(=C2\C=Cc3ccccc3N2CC)c1=O`, the IC50 is > 54 µM (inactive) and the fold change came out at 1.52.
In the same order, the values of `O=[N+]([O-])c1ccc(/C=N/n2c(CO)nc3ccccc32)s1` are 22.7 µM and 6.56.
As to `CCN1/C(=C2\SC(=S)N(Cc3ccccc3)C2=O)Sc2ccccc21`, the IC50 is > 54 µM (inactive) and the fold change is 2.96.
In the same order, the values of `Cc1ccccc1N1C(=O)NC(=O)/C(=C\c2ccc3c(c2)CCCN3Cc2ccccc2)C1=O` are 3.61 µM and 10.3.
In the same order, the values of `CC(C)c1cc(=O)oc2c3c4c(cc12)CCCN4CCC3` are 1.88 µM and 5.95.
Take `Cc1cccc(N2C(=O)NC(=O)/C(=C/c3cc4c(cc3[N+](=O)[O-])OCO4)C2=O)c1`: the half-maximal inhibitory concentration (IC50) was 2.62 µM and the fold change was determined as 3.71.
Consider `Cc1c(N2C(=O)c3ccc4c5c(ccc(c35)C2=O)CC4)c(=O)n(-c2ccccc2)n1C`, for which the IC50 was > 54 µM (inactive) and the fold change is 1.19.
`COC(=O)CN1C(=S)N(c2ccc(OC)cc2)C(=O)/C1=C/c1ccc(N2CCOCC2)cc1`: the 50% inhibitory concentration (IC50) was 6.67 µM and the fold change was determined as 2.83.
For `Cc1cc(C)n2c(SC/C(O)=C(\C#N)c3nc4ccccc4[nH]3)nnc2n1`, the IC50 is 20.1 µM and the fold change is 1.1.
Consider `COc1ccc(N=Nc2nc3ccc(Br)cc3n2C)cc1`, for which the IC50 is > 54 µM (inactive) and the fold change was found to be 1.28.
In the same order, the values of `CN(C(=O)COC(=O)c1cc(-c2ccco2)nc2ccccc12)C1CCS(=O)(=O)C1` (centres undefined) are 2.91 µM and 0.9.
As for `CN(C)c1ccc(/C=C2\CCC/C(=C\c3ccccc3)C2=O)cc1`, the IC50 was 14.5 µM and the fold change was found to be 10.6.
The matching figures for `O=C1NC(=O)[C@@H]2C3c4ccccc4C=CN3[C@H](C(=O)c3cccs3)[C@H]12` (some centres undefined): 4.84 µM and 3.36.
Turning to `Cc1c(C(=O)NCCSCc2c(F)cccc2Cl)cnn1-c1ccc(Cl)cc1`, the IC50 was > 54 µM (inactive) and the fold change worked out at 1.06.
In the same order, the values of `Cc1cc2c(cc1C)NC(c1c(C)n(C)n(-c3ccccc3)c1=O)C1=C(CC(C)(C)CC1=O)N2` (centres undefined) are 3.25 µM and 3.49.
The matching figures for `COc1ccccc1NC(=O)/C(C#N)=C/c1cc([N+](=O)[O-])ccc1N1CCCC1`: 4.7 µM and 60.1.
For the compound `O=C1c2ccccc2-c2ncnc3c(N4CCOCC4)cc(N4CCOCC4)c1c23`, the IC50 was > 54 µM (inactive) and the fold change stood at 1.1.
In the same order, the values of `Cn1c(=O)c2[nH]c(-c3ccccc3Cl)c(O)c2n(C)c1=O` are 1.99 µM and 2.61.
Consider `COc1ccc(/C=C2\CCCc3c2nc2ccccc2c3C(=O)O)cc1OC`, for which the IC50 is under 0.42 µM and the fold change was found to be 20.3.
Turning to `O=C1CCCC2=C1Sc1ccccc1N2`, the IC50 is 5.07 µM and the fold change was 1.99.
As to `Cc1cccc(N2C(=O)c3cccc4c(N(C)CCO)ccc(c34)C2=O)c1`, the half-inhibitory concentration (IC50) was under 0.42 µM and the fold change was 34.9.
In the same order, the values of `O=[N+]([O-])c1ccc2[nH]c(O)c(N=NC(=S)Nc3cccnc3)c2c1` are > 54 µM (inactive) and 0.61.
The matching figures for `CC1=CC(C#N)(C#N)C(C#N)(C#N)C(c2ccccc2)N1` (centres undefined): under 0.42 µM and 10.
On to `CCCCOC(=O)Cn1c2ccc(OC)cc2c2nc3ccccc3nc21`, for which the IC50 was 4.54 µM and the fold change worked out at 5.84.
Take `CCOc1cc(/C=C(\C#N)c2nc(-c3cccs3)c(NC(C)=O)s2)ccc1O`: the half-maximal inhibitory concentration (IC50) is 3.62 µM and the fold change worked out at 5.84.
In the same order, the values of `CC(=O)N/N=C/c1cc(C(C)(C)C)cc(/C=N/NC(C)=O)c1O` are 4.05 µM and 3.13.
For `Nc1c(S(=O)(=O)c2ccccc2)c2nc3ccccc3nc2n1Cc1ccco1`, the IC50 is > 54 µM (inactive) and the fold change came out at 1.32.
The matching figures for `CN1C(=O)/C(=C\N2CCc3ccccc32)C(=O)NC1=S`: > 54 µM (inactive) and 1.14.
In the same order, the values of `CNc1cccc2c1C(=O)c1ccccc1C2=O` are 2.8 µM and 2.44.
In the same order, the values of `O=C(Nc1ccc2[nH]c3c(c2c1)CCCC3)c1ccco1` are 27.9 µM and 2.83.
Turning to `O=C1C2=C(SCCS2)C(=O)N1CCCO`, the half-maximal inhibitory concentration (IC50) is 2.57 µM and the fold change worked out at 3.44.
`CS(=O)(=O)Nc1nc2n(n1)C(c1ccccc1)C=C(c1ccc(Br)cc1)N2` (centres undefined): the IC50 was 5.72 µM and the fold change came to 2.76.
For `CCCN1C(=O)c2cccc3c(N4CCCCC4)ccc(c23)C1=O`, the IC50 was > 54 µM (inactive) and the fold change was determined as 15.2.
With `O=C1C2C3C=CC(C3=C(c3ccccc3)c3ccccc3)C2C(=O)N1Cc1ccccc1` (centres undefined), the IC50 was > 54 µM (inactive) and the fold change is 0.99.
In the same order, the values of `Cc1ccnc(N2C(=O)c3cccc4c([N+](=O)[O-])ccc(c34)C2=O)c1` are 3.48 µM and 2.33.
Consider `COc1cccc(CN2C(=O)c3cccc(N)c3C2=O)c1`, for which the IC50 is 4.47 µM and the fold change came out at 2.76.
Turning to `Cc1n[nH]c(C)c1N1C(=O)c2cccc3c(N4CCCCCC4)ccc(c23)C1=O`, the half-maximal inhibitory concentration (IC50) was under 0.42 µM and the fold change was 88.6.

For the origin of these results see PubChem BioAssay AID1419 (Emory University Molecular Libraries Screening Center, 2008).
